Experimental data: patent US7074961B2, “Antidepressants and their analogues as long-acting local anesthetics and analgesics” (The Brigham and Women's Hospital, Inc., priority 2000, dated 2006)
Where “and” joins values, the source holds several entries; their conditions need not be identical. Identical values can stand only once. Like-named read-outs stand apart in the source and are kept apart here. Blank lines part the entries; values can stand above or below the compound they belong to.

Columns and labels:
rat sciatic nerve = assay: Rat sciatic nerve blockade with neurobehavioral examination (proprioception, motor function, nocifensive reaction); format: in vivo; settings: for Development of sciatic nerve blockade after injection: all rats
Source text: Male Sprague-Dawley rats were purchased from Taconic Farm, Inc., Germantown, N.Y., and kept in animal housing facilities with controlled humidity (20-30% relative humidity), room temperature, and a 12-h (6:00 AM-6:00 PM) light-dark cycle. Rats were handled before behavioral testing to familiarize them with the experiment and to minimize stress-induced analgesia. At the time of injections, animals weighed approximately 250-300 g. The experimenter was blinded to the drug/concentration used.
For sciatic nerve blockade, rats were lightly anesthetized by inhalation of sevoflurane and the landmarks (greater trochanter and ischial tuberosity) of the left hind limb were localized. […] The right hind limb was used as a control.
Neurobehavioral examination consisted of evaluation of motor function, proprioception, and nocifensive reaction immediately before inhalation of sevoflurane, at 2, 4, 6, 8, 10, 15, 20, 25, 30, 45, and 60 minutes after the injection, and then at 30-minute intervals until 750 minutes (12.5 hours). The following is a brief description of the neurobehavioral examination.
Motor function. Motor function was evaluated by measuring the “extensor postural thrust” of the hind limbs. The rat was held upright with the hind limb extended so that the body's weight was supported by the distal metatarsus and toes. The extensor thrust was measured as the gram force applied to a digital platform balance (Ohaus Lopro, Fisher Scientific, Florham Park, N.J.), the force that resists contact of the platform by the heel. The preinjection control value (range 130-165 gram) was considered 0% of the maximal possible effect (MPE). The reduction in this force, representing reduced extensor muscle contraction due to motor blockade, was calculated as a percentage of the control force. A force less than 20 grams (also referred to as weight of the “flaccid limb”) was considered 100% MPE.
Proprioception. Proprioception evaluation was based on resting posture and postural reactions (“tactile placing” and “hopping”). The functional deficit was graded as 3 (normal) or 0% MPE, 2 (slightly impaired), 1 (severely impaired), and 0 (complete) or 100% MPE. Keeping the rat in a normal resting posture with the toes flexed and the dorsi of the feet placed on the supporting surface, we evaluated tactile placing as the ability to reposition the toes.
Hopping response was evoked by lifting the front half of the animal off the ground and then lifting one hind limb at a time off the ground so that the animal moved laterally. This process normally evokes a prompt hopping with the weight-bearing limb in the direction of movement to avoid falling over. A predominantly motor impairment causes a prompt but weaker than normal response. Conversely with a predominantly proprioceptive blockade, delayed hopping is followed by greater lateral hops to avoid falling over or, in case of full blockade, no hopping at all.
Nocifensive reaction. Nocifensive reaction was evaluated by the withdrawal reflex and/or vocalization to pinch of a skin fold over the lateral metatarsus (cutaneous pain) and of the distal phalanx of the fifth toe (deep pain). Nocifensive reaction was graded 4 (normal or 0% MPE), 3 (25% MPE), 2 (50% MPE), 1 (75% MPE), and 0 (absent or 100% MPE).

Na+ channels = assay: Whole-cell voltage clamp of Na+ currents in GH3 cells; format: cell-based, rat; settings: for Use-dependent (additional) blockade of Na+ currents: 3 μM, high-frequency stimulation at 5 Hz, 60 pulses; for Na+ channels blocked in the inactivated state / Na+ channels blocked in the resting state: 10 μM; for Na+ channels blocked in the inactivated state: conditioning pulse of −60 mV; for Na+ channels blocked in the inactivated state / Na+ channels blocked in the resting state / IC50: GH3 cells; for Na+ channels blocked in the resting state: conditioning pulse of −150 mV; for Time to complete washout: all concentrations and all protocols
Experimental: The whole-cell configuration of the patch-clamp technique was used to record macroscopic Na^+ currents at room temperatures ranging from 21 to 23 degrees Celsius. Command voltages were controlled by pCLAMP software (Axons Instruments, Inc., Foster City, Calif.) and delivered by a List-EPC7 patch clamp amplifier (List-Electronic, Darmstadt/Eberstadt, Germany). After the establishment of whole-cell configuration, cells were dialyzed for 30 minutes before data were acquired. Data were filtered at 5 kHz, sampled at 50 kHz, collected, and stored with pCLAMP software. Leak and capacitance currents were subtracted by P/4 protocol, which was not applied in the use-dependent block of Na^+ currents. Pipette electrodes were filled with an internal solution containing (in mM) 100 NaF, 30 NaCl, 10 ethylene glycol-bis(β-aminoethylether)N,N,N′,N′-tetraacetic acid (EGTA), and 10 hydroxyethylpiperazineethane sulfonic acid (HEPES) titrated with CsOH to pH 7.2. The external solution consisted of (in mM) 85 choline Cl, 65 NaCl, 2 CaCl2, and 10 HEPES titrated with tetramethylammoniumhydroxide to pH 7.4. Rat clonal pituitary GH3 cells were purchased from the American Type Culture, Collection (Rockville, Md.). Cells were split twice a week and maintained in Dulbecco's modified Eagle's medium supplemented with penicillin/streptomycin (1%) and heat-inactivated fetal bovine serum (10%). The 35 mm-culture dishes in which the cells were grown were also used as a recording chamber. To determine the voltage-dependent blockade by amitriptyline or bupivacaine, a prepulse or conditioning pulse at various voltages and long enough to permit the drug-channel binding interaction to reach its steady-state level was applied (pulse protocol and representative tracings are shown in FIG. 4A). In order to determine the potency of amitriptyline and bupivacaine for the resting and inactivated states, dose-response curves were subsequently constructed at holding potentials of −150 mV and −60 mV, respectively (FIG. 5). Finally, additional blockade provoked by high-frequency stimulation (use dependent blockade) was investigated (pulse protocol and representative tracings are shown in FIG. 6A).

[1] = reportedly; cited from earlier work
[2] = single injection at 5 mM into the rat sciatic notch
[3] = holding potential −60 mV, read-out: 50% inhibitory concentration (IC50), inactivated state
[4] = holding potential −150 mV, read-out: 50% inhibitory concentration (IC50), resting state

Structure (SMILES): C[N+](C)(C)CC/C=C1\c2ccccc2COc2ccccc21 [N-methyl doxepin, N-methyl doxepin bromide]
- Duration for complete blockage of motor (rat sciatic nerve; 5 mM, pH 7.4): 5.0 ± 0.5 h
- Duration for complete blockage of nociception (rat sciatic nerve; 5 mM, pH 7.4): 5.3 ± 0.3 h
- Duration for complete blockage of proprioception (rat sciatic nerve; 5 mM, pH 7.4): 5.0 ± 0.5 h
- Time to reach full recovery of motor (rat sciatic nerve; 5 mM, pH 7.4): 10.3 ± 0.2 h
- Time to reach full recovery of nociception (rat sciatic nerve; 5 mM, pH 7.4): 9.9 ± 0.2 h
- Time to reach full recovery of proprioception (rat sciatic nerve; 5 mM, pH 7.4): 9.5 ± 0.3 h
- Development of sciatic nerve blockade after injection (rat sciatic nerve): complete sciatic nerve blockade

Structure (SMILES): C[N+](C)(CCC=C1c2ccccc2CCc2ccccc21)CCc1ccccc1.[Br-] [N-phenyl-ethyl amitriptyline, N-phenyl-ethyl amitriptyline bromide]
- Extension of duration of complete nerve block over parent drug (rat sciatic nerve; 5 mM, 5 vs. 70 hrs): more than 10 fold
- Duration of complete sciatic nerve block (rat sciatic nerve; [2]): 70 to 80 h
- Full recovery of function (rat sciatic nerve; [2]): 5 to 6 days
- Inhibition of sodium channels in vitro (Na+ channels): strong tonic and use-dependent inhibition

- IC50 (Na+ channels; [3]): 0.9 ± 0.1 µM
- IC50 (Na+ channels; [4]): 141 ± 4.4 µM
Structure (SMILES): CN(C)CCC=C1c2ccccc2CCc2ccccc21 [amitriptyline]
- Duration of complete blockade, motor (rat sciatic nerve; 5 mM): 168.7 ± 7.9 min
- Duration of complete blockade, nociception (rat sciatic nerve; 5 mM): 217.5 ± 19.4 min
- Time to full recovery of function, motor function (rat sciatic nerve; 5 mM): 270 ± 13.9 min
- Time to full recovery of function, nociception (rat sciatic nerve; 5 mM): 352.5 ± 12.4 min
- Time to full recovery of function, proprioception (rat sciatic nerve; 5 mM): 255.0 ± 11.3 min
- Duration of complete blockade, motor (rat sciatic nerve; 10 mM): 402.9 ± 27.7 min
- Duration of complete blockade, nociception (rat sciatic nerve; 10 mM): 454.8 ± 38.4 min and 454.3 ± 38.4 min
- Duration of complete blockade, proprioception (rat sciatic nerve; 10 mM): 467.1 ± 35.8 min
- Time to full recovery of function, motor function (rat sciatic nerve; 10 mM): 582.6 ± 32.6 min
- Time to full recovery of function, nociception (rat sciatic nerve; 10 mM): 655.7 ± 27.3 min
- Time to full recovery of function, proprioception (rat sciatic nerve; 10 mM): 578.6 ± 39.7 min
- Onset: time to full nociceptive, motor and proprioceptive blockade (rat sciatic nerve; 0.2 ml 5 mM at sciatic nerve): 30 min
- Onset: time to full nociceptive, motor and proprioceptive blockade (rat sciatic nerve; 0.2 ml 10 mM at sciatic nerve): 6 min
- Development of sciatic nerve blockade after injection (rat sciatic nerve): complete sciatic nerve blockade
- Use-dependent (additional) blockade of Na+ currents (Na+ channels): ~50%
- Na+ channels blocked in the inactivated state (Na+ channels): > 95%
- Na+ channels blocked in the resting state (Na+ channels): ~15%
- Time to complete washout (Na+ channels): ≤ 5 min
- Hill coefficient, inactivated state (Na+ channels; −60 mV): 1.35±0.15
- Potency relative to bupivacaine, inactivated state (Na+ channels; −60 mV): ~10 ×
- Hill coefficient, resting state (Na+ channels; −150 mV): 1.56±0.03
- Potency relative to bupivacaine, resting state (Na+ channels; −150 mV): ~15 ×

- IC50 (Na+ channels; [3]): 9.5 ± 0.6 µM
- IC50 (Na+ channels; [4]): 9.5 ± 0.6 µM
Structure (SMILES): CCCCN1CCCCC1C(=O)Nc1c(C)cccc1C (centres unmarked) [bupivacaine]
- Duration of complete blockade, motor (rat sciatic nerve; 15.4 mM): 87.5 ± 14.7 min
- Duration of complete blockade, nociception (rat sciatic nerve; 15.4 mM): 90 ± 13.4 min
- Duration of complete blockade, proprioception (rat sciatic nerve; 15.4 mM): 90 ± 13.4 min
- Time to full recovery of function, motor function (rat sciatic nerve; 15.4 mM): 160.0 ± 6.3 min
- Time to full recovery of function, proprioception (rat sciatic nerve; 15.4 mM): 155.0 ± 9.2 min
- Onset: time to full nociceptive, motor and proprioceptive blockade (rat sciatic nerve; 0.2 ml 15.4 mM at sciatic nerve): 4 min
- Use-dependent (additional) blockade of Na+ currents (Na+ channels): ~14%
- Na+ channels blocked in the inactivated state (Na+ channels): > 70%
- Na+ channels blocked in the resting state (Na+ channels): essentially none
- Time to complete washout (Na+ channels): ≤ 3 min
- Hill coefficient, inactivated state (Na+ channels; −60 mV): 1.16±0.08
- Hill coefficient, resting state (Na+ channels; −150 mV): 1.12±0.04
- Duration of major nerve block [1]: three to twelve
